Reference: US20260297542A1, “HERBICIDE RESISTANT PLANTS” (SYNGENTA CROP PROTECTION AG, priority 2023, published 2026)
Numbering of substitutions follows the chain as printed.

Key:
Experiment in all cases: E. coli hemG growth inhibition by herbicide, AtPPO1 variant
Type in all cases: cell-based
Conditions in all cases: read-out: percentage growth inhibition
AtPPO1 A220C = biological target: T1, AtPPO1 A220C (Arabidopsis thaliana, UniProt P55826, A220C)
T1 construct: expressed in transfected cells; host or cells: E. coli BL21(DE3) hemG (hemG replaced by CmR), pET24a plasmid
T1 sequence (P55826 35-537 A220C): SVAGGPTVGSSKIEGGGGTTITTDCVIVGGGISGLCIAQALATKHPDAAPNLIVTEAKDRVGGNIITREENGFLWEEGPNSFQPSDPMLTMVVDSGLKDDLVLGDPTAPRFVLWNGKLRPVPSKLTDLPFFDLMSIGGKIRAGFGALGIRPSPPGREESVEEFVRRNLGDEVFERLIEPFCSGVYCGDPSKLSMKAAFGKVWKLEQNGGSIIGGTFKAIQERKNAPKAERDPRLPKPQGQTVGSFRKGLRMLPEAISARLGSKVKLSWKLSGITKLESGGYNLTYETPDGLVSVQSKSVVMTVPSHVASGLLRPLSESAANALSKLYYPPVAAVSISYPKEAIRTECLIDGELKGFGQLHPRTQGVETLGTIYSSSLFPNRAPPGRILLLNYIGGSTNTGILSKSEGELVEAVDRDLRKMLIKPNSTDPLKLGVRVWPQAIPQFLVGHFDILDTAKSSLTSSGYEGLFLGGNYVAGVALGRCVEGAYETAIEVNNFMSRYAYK
How it was run: (§1)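 AtPPO1 variants from a site-saturation library, codon-optimised and T7-driven in pET24a, were expressed in E. coli BL21(DE3) lacking hemG (hemG replaced by CmR). Growth in Terrific broth with 0.1 mM IPTG plus 6.25 ppm herbicide 0 or E, 0.78 ppm herbicide B, or DMSO was read as OD600 after 24 h at 37° C; inhibition was calculated against the DMSO culture.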

AtPPO1 L464Y = biological target: T2, AtPPO1 L464Y (Arabidopsis thaliana, UniProt P55826, L464Y)
T2 construct: expressed in transfected cells; host or cells: E. coli BL21(DE3) hemG, pET24a plasmid
T2 sequence (P55826 35-537 L464Y): T1 sequence (P55826 35-537 A220C) with C186A, L430Y
How it was run: as §1

AtPPO1 V218K = biological target: T3, AtPPO1 V218K (Arabidopsis thaliana, UniProt P55826, V218K)
T3 construct: expressed in transfected cells; host or cells: E. coli BL21(DE3) hemG (hemG replaced by CmR), pET24a plasmid
T3 sequence (P55826 35-537 V218K): T1 sequence (P55826 35-537 A220C) with V184K, C186A
How it was run: as §1

AtPPO1 K281C = biological target: T4, AtPPO1 K281C (Arabidopsis thaliana, UniProt P55826, K281C)
T4 construct: expressed in transfected cells; host or cells: E. coli BL21(DE3) hemG (hemG replaced by CmR), pET24a plasmid
T4 sequence (P55826 35-537 K281C): T1 sequence (P55826 35-537 A220C) with C186A, K247C
How it was run: as §1

SMILES | inhibition at 6.25 ppm (AtPPO1 A220C) [%] | inhibition at 6.25 ppm (AtPPO1 L464Y) [%] | inhibition at 6.25 ppm (AtPPO1 V218K) [%] | inhibition at 6.25 ppm (AtPPO1 K281C) [%] | inhibition at 0.78 ppm (AtPPO1 A220C) [%] | inhibition at 0.78 ppm (AtPPO1 L464Y) [%] | inhibition at 0.78 ppm (AtPPO1 V218K) [%] | inhibition at 0.78 ppm (AtPPO1 K281C) [%]
CC(C)N(C)S(=O)(=O)NC(=O)c1cc(-n2c(=O)cc(C(F)(F)F)n(C)c2=O)c(F)cc1Cl [Herbicide E, saflufenacil] | 66 | 5 | 50 | 54 | – | – | – | –
C#CCN1C(=O)C(F)(F)Oc2cc(F)c(-n3c(=O)n(C)c(=S)n(C)c3=O)cc21 [Herbicide B, trifludimoxazin] | – | – | – | – | 15 | 0 | 38 | 35
CCOC(=O)[C@]1(C)CC(c2cc(-n3c(=O)n(C)c(=S)n(C)c3=O)c(F)cc2Cl)=NO1 [Herbicide D, ethyl (5S)-3-[2-chloro-5-(3,5-dimethyl-2,6-dioxo-4-thioxo-1,3,5-triazinan-1-yl)-4-fluoro-phenyl]-5-methyl-4H-isoxazole-5-carboxylate] | 33 | 12 | 31 | 33 | – | – | – | –
